Laboratory results from US7872018B2, “Compounds and methods for kinase modulation, and indications therefor” (Plexxikon, Inc., priority 2006, dated 2011).

Tests used:
[1] = target: T1, Fms (Homo sapiens, UniProt P07333); experiment: Fms biochemical assay (AlphaScreen or 33P-ATP); conditions: under the test conditions employed; read-out: IC50 toward kinase Fms
T1 construct: purchased Upstate Biotech 14-551
Excerpt: Each sample was at 5% DMSO.

[2] = target: B-Raf (Homo sapiens, UniProt P15056); experiment: B-Raf kinase activity assay; type: biochemical; conditions: under the test conditions employed; read-out: IC50 toward kinase B-Raf
B-Raf, sequence (P15056 whole entry): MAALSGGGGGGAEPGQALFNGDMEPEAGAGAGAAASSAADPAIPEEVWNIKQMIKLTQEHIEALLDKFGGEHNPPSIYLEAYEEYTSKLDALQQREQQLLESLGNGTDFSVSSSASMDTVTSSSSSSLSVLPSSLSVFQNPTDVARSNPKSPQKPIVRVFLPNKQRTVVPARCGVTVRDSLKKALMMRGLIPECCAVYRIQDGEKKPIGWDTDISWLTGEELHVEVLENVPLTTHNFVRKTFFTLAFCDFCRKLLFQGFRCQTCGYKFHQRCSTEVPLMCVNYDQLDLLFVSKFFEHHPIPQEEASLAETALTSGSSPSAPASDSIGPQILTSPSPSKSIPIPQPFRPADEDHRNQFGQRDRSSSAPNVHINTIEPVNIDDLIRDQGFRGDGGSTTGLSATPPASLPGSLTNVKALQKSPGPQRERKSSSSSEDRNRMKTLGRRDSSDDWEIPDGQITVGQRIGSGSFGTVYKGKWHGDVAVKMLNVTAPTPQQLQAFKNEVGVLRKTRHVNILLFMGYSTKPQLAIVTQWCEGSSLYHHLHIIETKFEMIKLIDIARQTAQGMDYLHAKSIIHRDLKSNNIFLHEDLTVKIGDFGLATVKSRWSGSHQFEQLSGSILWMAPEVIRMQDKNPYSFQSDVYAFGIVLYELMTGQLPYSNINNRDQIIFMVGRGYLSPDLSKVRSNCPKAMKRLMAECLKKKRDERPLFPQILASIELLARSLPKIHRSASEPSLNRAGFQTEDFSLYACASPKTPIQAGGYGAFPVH

[3] = target: B-Raf V600E (Homo sapiens, UniProt P15056, V600E); experiment: B-Raf V600E kinase activity assay; type: biochemical; conditions: under the test conditions employed; read-out: IC50 toward kinase B-Raf V600E
B-Raf V600E, sequence (P15056 whole entry V600E): as the sequence (P15056 whole entry) above, with V600E counted along it

[4] = target: T2, Kit (Homo sapiens, UniProt P10721); experiment: c-kit biochemical assay (AlphaScreen or 33P-ATP); conditions: under the test conditions employed; read-out: IC50 toward kinase Kit
T2 construct: P1332.N6 BI PTP KIT M552-K948-X COD; made in house; host or cells: E. coli BL21(DE3)RIL, co-expressed with PTP1B
T2 sequence (P10721 552-948): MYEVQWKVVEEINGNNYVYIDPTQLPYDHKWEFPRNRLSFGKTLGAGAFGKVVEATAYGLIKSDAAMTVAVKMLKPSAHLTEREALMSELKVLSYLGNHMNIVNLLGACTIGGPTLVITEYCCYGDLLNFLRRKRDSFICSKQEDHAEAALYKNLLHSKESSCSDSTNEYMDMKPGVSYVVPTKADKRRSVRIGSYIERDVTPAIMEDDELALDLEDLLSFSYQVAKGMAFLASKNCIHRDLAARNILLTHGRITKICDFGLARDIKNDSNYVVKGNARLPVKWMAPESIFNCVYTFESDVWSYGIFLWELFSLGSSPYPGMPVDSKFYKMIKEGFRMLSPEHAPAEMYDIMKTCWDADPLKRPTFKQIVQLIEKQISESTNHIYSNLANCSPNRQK
Outline: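 Kinase activity read by AlphaScreen or 33P-ATP incorporation, with c-kit enzyme at 1 ng per sample. The enzyme was either commercial or a recombinant human kit construct made from a gene-synthesized coding sequence.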

[5] = target: Flt1 (Homo sapiens, UniProt P17948); experiment: Flt1 kinase activity assay; type: biochemical; conditions: under the test conditions employed; read-out: IC50 toward kinase Flt1
Flt1, sequence (P17948 27-1338): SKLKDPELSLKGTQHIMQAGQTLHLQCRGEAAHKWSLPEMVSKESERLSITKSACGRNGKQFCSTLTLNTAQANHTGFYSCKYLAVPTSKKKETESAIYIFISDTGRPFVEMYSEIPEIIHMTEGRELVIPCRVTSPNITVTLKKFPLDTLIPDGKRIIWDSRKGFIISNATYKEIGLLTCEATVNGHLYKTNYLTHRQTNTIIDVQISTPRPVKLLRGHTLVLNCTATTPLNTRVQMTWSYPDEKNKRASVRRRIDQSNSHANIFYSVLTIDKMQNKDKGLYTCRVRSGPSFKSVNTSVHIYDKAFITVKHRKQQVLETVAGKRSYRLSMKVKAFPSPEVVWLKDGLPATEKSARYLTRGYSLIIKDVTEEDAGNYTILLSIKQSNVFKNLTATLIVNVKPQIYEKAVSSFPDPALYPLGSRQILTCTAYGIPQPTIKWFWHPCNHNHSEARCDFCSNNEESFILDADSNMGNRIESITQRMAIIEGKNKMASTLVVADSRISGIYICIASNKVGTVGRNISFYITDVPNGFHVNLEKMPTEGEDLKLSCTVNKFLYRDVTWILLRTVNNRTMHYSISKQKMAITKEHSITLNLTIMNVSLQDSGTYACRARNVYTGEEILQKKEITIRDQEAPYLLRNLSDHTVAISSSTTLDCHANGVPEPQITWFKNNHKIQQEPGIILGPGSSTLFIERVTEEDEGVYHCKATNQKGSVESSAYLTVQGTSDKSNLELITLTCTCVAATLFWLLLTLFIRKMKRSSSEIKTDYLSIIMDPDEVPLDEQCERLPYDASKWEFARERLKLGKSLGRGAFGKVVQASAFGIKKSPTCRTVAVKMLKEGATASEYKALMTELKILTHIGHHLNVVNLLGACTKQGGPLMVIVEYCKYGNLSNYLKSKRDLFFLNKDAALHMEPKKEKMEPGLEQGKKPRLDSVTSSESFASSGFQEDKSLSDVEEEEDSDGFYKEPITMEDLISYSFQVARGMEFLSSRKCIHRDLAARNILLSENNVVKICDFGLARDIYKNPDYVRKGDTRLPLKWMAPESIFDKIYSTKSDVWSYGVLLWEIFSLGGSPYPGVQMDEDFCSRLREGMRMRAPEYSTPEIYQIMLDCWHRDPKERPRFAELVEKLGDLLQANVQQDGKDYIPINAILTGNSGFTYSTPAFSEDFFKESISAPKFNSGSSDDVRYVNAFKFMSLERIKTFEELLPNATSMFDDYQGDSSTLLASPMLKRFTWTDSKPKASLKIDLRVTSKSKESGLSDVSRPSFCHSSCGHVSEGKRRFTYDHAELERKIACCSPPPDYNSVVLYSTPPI

[6] = target: Kdr (Homo sapiens, UniProt P35968); experiment: Kdr kinase activity assay; type: biochemical; conditions: under the test conditions employed; read-out: IC50 toward kinase Kdr
Kdr, sequence (P35968 20-1356): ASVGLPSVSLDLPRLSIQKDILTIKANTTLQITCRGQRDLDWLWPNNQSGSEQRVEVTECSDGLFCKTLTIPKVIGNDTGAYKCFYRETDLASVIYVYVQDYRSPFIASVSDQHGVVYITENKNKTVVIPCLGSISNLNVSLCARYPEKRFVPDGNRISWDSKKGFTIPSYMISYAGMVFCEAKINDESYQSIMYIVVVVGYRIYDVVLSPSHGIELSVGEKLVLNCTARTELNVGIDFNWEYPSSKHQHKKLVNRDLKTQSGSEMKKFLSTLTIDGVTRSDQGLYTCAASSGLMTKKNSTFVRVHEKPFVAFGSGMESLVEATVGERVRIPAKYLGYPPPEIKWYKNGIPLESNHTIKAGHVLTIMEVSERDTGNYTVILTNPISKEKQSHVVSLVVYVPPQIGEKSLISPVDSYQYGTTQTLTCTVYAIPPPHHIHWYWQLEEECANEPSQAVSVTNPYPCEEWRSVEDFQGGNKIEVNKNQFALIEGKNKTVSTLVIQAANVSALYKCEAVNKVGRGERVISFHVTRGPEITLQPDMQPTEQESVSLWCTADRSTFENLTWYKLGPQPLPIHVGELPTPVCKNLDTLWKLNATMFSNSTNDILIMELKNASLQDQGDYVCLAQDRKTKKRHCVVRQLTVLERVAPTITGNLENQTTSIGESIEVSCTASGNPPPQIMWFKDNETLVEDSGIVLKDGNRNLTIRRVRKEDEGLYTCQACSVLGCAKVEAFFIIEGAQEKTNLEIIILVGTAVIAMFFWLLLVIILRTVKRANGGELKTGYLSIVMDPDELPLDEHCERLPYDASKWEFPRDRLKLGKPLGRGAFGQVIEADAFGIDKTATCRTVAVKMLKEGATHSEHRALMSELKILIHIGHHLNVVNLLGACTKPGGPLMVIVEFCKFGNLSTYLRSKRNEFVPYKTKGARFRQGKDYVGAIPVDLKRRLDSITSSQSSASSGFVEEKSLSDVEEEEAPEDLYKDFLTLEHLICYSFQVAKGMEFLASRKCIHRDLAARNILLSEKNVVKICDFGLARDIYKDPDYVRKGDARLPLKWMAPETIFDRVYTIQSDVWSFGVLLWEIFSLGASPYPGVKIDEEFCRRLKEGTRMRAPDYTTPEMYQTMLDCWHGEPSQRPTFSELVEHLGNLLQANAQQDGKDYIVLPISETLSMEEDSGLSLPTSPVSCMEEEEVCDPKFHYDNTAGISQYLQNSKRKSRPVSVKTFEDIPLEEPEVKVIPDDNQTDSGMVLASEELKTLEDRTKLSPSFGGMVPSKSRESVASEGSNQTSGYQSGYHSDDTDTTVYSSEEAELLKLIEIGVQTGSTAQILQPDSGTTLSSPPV

[7] = target: T3, TrkA (Homo sapiens, UniProt P04629); experiment: TrkA biochemical assay (AlphaScreen); conditions: under the test conditions employed; read-out: IC50 toward kinase TrkA
T3 construct: purchased Upstate Biotech 14-571
Description: Compounds tested were dissolved in DMSO (1 μL) and added to a white 384-well plate (Costar #3705). […] Each sample was at 5% DMSO. The plate was then incubated for 40 minutes at room temperature.

[8] = target: HGK (Homo sapiens, UniProt O95819); experiment: HGK (MAP4K4) biochemical assay (AlphaScreen); conditions: under the test conditions employed; read-out: IC50 toward kinase HGK
HGK, sequence (O95819 whole entry): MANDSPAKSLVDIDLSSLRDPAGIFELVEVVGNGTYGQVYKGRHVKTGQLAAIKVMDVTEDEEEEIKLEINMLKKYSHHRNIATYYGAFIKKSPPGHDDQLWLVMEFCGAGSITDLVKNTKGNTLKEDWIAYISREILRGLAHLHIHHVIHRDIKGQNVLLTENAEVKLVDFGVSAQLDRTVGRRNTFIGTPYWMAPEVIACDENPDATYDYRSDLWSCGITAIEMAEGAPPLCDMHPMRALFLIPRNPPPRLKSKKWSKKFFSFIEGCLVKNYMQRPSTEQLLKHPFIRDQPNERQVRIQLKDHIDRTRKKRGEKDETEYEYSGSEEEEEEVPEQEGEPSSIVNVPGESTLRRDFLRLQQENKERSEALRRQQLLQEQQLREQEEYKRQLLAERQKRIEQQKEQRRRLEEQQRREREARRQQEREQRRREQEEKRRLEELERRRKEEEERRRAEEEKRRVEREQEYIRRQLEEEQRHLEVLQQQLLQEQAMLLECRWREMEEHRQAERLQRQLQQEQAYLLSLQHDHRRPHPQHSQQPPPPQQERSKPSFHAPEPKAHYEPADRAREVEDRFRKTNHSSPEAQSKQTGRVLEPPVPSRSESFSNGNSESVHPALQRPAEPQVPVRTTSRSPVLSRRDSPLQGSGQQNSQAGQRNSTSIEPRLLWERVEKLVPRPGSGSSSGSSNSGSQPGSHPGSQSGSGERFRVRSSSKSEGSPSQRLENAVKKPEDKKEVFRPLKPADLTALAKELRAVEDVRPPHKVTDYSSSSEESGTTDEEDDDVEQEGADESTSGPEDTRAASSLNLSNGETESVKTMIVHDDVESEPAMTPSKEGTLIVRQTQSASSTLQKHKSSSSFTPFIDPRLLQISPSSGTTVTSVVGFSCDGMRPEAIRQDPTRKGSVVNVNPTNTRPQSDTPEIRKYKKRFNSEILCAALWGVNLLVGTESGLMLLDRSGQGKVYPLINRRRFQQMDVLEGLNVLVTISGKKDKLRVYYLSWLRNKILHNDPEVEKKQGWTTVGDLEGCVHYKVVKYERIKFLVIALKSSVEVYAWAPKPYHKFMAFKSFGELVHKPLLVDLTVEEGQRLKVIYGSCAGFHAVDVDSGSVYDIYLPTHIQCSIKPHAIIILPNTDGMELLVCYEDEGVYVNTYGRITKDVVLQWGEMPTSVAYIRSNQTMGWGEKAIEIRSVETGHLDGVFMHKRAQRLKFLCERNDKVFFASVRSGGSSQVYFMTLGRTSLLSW
Outline: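 AlphaScreen kinase assay with 0.5 ng MAP4K4 per sample and 10 nM biotin-ERM substrate, reacted 40 min at room temperature. Stopped with EDTA buffer containing phospho-ERM antibody (1:1000) plus donor and protein A acceptor beads (1 μg/ml final); signal tracks substrate phosphorylation.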

[9] = target: FGFR (Homo sapiens, UniProt P11362); experiment: FGFR kinase activity assay; type: biochemical; conditions: under the test conditions employed; read-out: IC50 toward kinase FGFR

Measured: IC50

O=C(c1c(F)ccc(OCc2ccccc2)c1F)c1c[nH]c2ncccc12 [P-1802, (3-Benzyloxy-2,6-difluoro-phenyl)-(1H-pyrrolo[2,3-b]pyridin-3-yl)-methanone]
≤ 10 µM: [1] | [2] | [3]

Clc1ccc(COc2ccc(Cc3c[nH]c4ncccc34)cc2)cc1 [P-1462, 3-[4-(4-Chloro-benzyloxy)-benzyl]-1H-pyrrolo[2,3-b]pyridine]
≤ 10 µM: [4] | [1] | [3] | [5]

COc1cnc2[nH]cc(Cc3cc(F)c(OCc4nc5ccccc5[nH]4)cc3F)c2c1 [P-2101, 2-[2,5-Difluoro-4-(5-methoxy-1H-pyrrolo[2,3-b]pyridin-3-ylmethyl)-phenoxymethyl]-1H-benzoimidazole]
not listed: [2] | [3] | [9]
≤ 10 µM: all other assays above

COc1ccc(COc2ccc(Cc3c[nH]c4ncccc34)cc2OC)cc1 [P-1569, 3-[3-Methoxy-4-(4-methoxy-benzyloxy)-benzyl]-1H-pyrrolo[2,3-b]pyridine]
≤ 10 µM: [4] | [1] | [2] | [3] | [5]

Fc1cc(OCc2nc3ccccc3[nH]2)c(F)cc1Cc1c[nH]c2ncc(Cl)cc12 [P-2100, 2-[4-(5-Chloro-1H-pyrrolo[2,3-b]pyridin-3-ylmethyl)-2,5-difluoro-phenoxymethyl]-1H-benzoimidazole]
not listed: [5] | [9]
≤ 10 µM: all other assays above

COCCOc1ccc(F)c(C(=O)c2c[nH]c3ncc(Cl)cc23)c1Cl [P-2159, [2-Chloro-6-fluoro-3-(2-methoxy-ethoxy)-phenyl]-(5-chloro-1H-pyrrolo[2,3-b]pyridin-3-yl)-methanone]
≤ 10 µM: [4] | [6] | [1] | [9]

COc1cc(Cc2c[nH]c3ncc(Cl)cc23)c(F)cc1OCc1nc2cc(S(=O)(=O)N(C)C)ccc2[nH]1 [P-2173, 2-[4-(5-Chloro-1H-pyrrolo[2,3-b]pyridin-3-ylmethyl)-5-fluoro-2-methoxy-phenoxymethyl]-1H-benzoimidazole-5-sulfonic acid dimethylamide]
≤ 10 µM: [4] | [1] | [7] | [2] | [8]

COCCOc1ccc(F)c(C(=O)c2c[nH]c3ncccc23)c1Cl [P-2160, [2-Chloro-6-fluoro-3-(2-methoxy-ethoxy)-phenyl]-(1H-pyrrolo[2,3-b]pyridin-3-yl)-methanone]
≤ 10 µM: [4] | [6] | [1] | [9]

Clc1ccc(COc2ccc(Cl)c(Cc3c[nH]c4ncccc34)c2Cl)cc1 [P-1768, 3-[2,6-Dichloro-3-(4-chloro-benzyloxy)-benzyl]-1H-pyrrolo[2,3-h]pyridine]
≤ 10 µM: [1] | [2] | [3]

COc1cc(Cc2c[nH]c3ncc(S(C)(=O)=O)cc23)c(F)cc1OCc1nc2ccccc2[nH]1 [P-2186, 2-[5-Fluoro-4-(5-methanesulfonyl-1H-pyrrolo[2,3-b]pyridin-3-ylmethyl)-2-methoxy-phenoxymethyl]-1H-benzoimidazole]
≤ 10 µM: [1] | [7] | [2] | [3] | [8]

COc1cnc2[nH]cc(Cc3ccc(OCc4ccc(Cl)cc4)c(OC)c3)c2c1 [P-1531, 3-[4-(4-Chloro-benzyloxy)-3-methoxy-benzyl]-5-methoxy-1H-pyrrolo[2,3-b]pyridine]
≤ 10 µM: [4] | [3] | [5]

COc1cc(Cc2c[nH]c3ncccc23)ccc1OCc1ccc(Cl)cc1F [P-1544, 3-[4-(4-Chloro-2-fluoro-benzyloxy)-3-methoxy-benzyl]-1H-pyrrolo[2,3-b]pyridine]
≤ 10 µM: [4] | [1] | [2] | [3] | [5]

COc1cnc2[nH]cc(C(=O)c3c(F)ccc(OCC(F)(F)F)c3Cl)c2c1 [P-2149, [2-Chloro-6-fluoro-3-(2,2,2-trifluoro-ethoxy)-phenyl]-(5-methoxy-1H-pyrrolo[2,3-b]pyridin-3-yl)-methanone]
≤ 10 µM: [4] | [6] | [1] | [5] | [8]

COc1cc(Cc2c[nH]c3ncc(Cl)cc23)ccc1OCc1ccc(Cl)cc1 [P-1532, 5-Chloro-3-[4-(4-chloro-benzyloxy)-3-methoxy-benzyl]-1H-pyrrolo[2,3-b]pyridine]
≤ 10 µM: [4] | [1] | [2] | [3] | [5]

O=C(c1c(Cl)ccc(OCc2ccc(Cl)cc2)c1Cl)c1c[nH]c2ncccc12 [P-1769, [2,6-Dichloro-3-(4-chloro-benzyloxy)-phenyl]-(1-pyrrolo[2,3-b]pyridin-3-yl)methanone]
≤ 10 µM: [1] | [2] | [3]

COc1cc(Cc2c[nH]c3ncccc23)ccc1OCc1ccc(C(F)(F)F)cc1 [P-1721, 3-[3-Methoxy-4-(4-trifluoromethyl-benzyloxy)-benzyl]-1H-pyrrolo[2,3-b]pyridine]
≤ 10 µM: [1] | [2] | [3]

COc1cc(Cc2c[nH]c3ncccc23)ccc1OCc1ccc(Cl)cc1Cl [P-1568, 3-[4-(2,4-Dichloro-benzyloxy)-3-methoxy-benzyl]-1H-pyrrolo[2,3-b]pyridine]
≤ 10 µM: [4] | [1] | [2] | [3]

Cn1cc(-c2cnc3[nH]cc(Cc4c(F)ccc(OCC(F)(F)F)c4Cl)c3c2)cn1 [P-2146, 3-[2-Chloro-6-fluoro-3-(2,2,2-trifluoro-ethoxy)-benzyl]-5-(1-methyl-1H-pyrazol-4-yl)-1H-pyrrolo[2,3-b]pyridine]
not listed: [2] | [3] | [9]
≤ 10 µM: all other assays above

Cn1ccnc1COc1ccc(F)c(C(=O)c2c[nH]c3ncc(Cl)cc23)c1F [P-2165, (5-Chloro-1H-pyrrolo[2,3-b]pyridin-3-yl)-[2,6-difluoro-3-(1-methyl-1H-imidazol-2-ylmethoxy)-phenyl]-methanone]
not listed: [7] | [8] | [9]
≤ 10 µM: all other assays above

COc1cc(Cc2c[nH]c3ncccc23)ccc1OCc1ccccc1 [P-1613, 3-(4-benzyloxy-3-methoxy-benzyl)-1H-pyrrolo[2,3-b]pyridine]
≤ 10 µM: [1] | [2] | [3] | [5]

CS(=O)(=O)c1cnc2[nH]cc(Cc3cc(F)c(OCc4nc5ccccc5[nH]4)cc3F)c2c1 [P-2170, 2-[2,5-Difluoro-4-(5-methanesulfonyl-1H-pyrrolo[2,3-b]pyridin-3-ylmethyl)-phenoxymethyl]-1H-benzoimidazole]
≤ 10 µM: [1] | [7] | [2] | [5] | [8]
